According to PubChem BioAssay AID2060511 (Molecular Pharmacology Branch, DTP, NCI, 2025):

Test system: 422866-222-R5-J1-PDC spheroids with HUVEC/MSC, viability
Assay: Anticancer human tumor 422866-222-R5-J1-PDC patient-derived pancreatic adenocarcinoma cell line growth inhibition [GQUAD]
Settings: for IC50: curve of first compound; for viability, T/C: stronger effect = lower value
Outline: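 Multi-cell-type spheroids of tumor cells with HUVEC and mesenchymal stem cells, treated with drug combinations. Concentrations descend in half-log steps from near clinical Cmax, or from 10 microM where Cmax is unknown; viability read-out.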
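Note: spheroids exposed to compounds for seven days before reading.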
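Throughout, for viability, T/C: percent viability relative to DMSO vehicle control taken as 100%.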

## C#Cc1c(F)ccc2cc(O)cc(-c3ncc4c(N5CC6CCC(C5)N6)nc(OCC56CCCN5CC(F)C6)nc4c3F)c12 (configuration not stated) + Cc1[nH]c2ccc(F)cc2c1-c1nc2c3cccnc3c3ncccc3c2[nH]1
Second compound 0.0316 µM
  IC50: 2.18 µM
Second compound 0.1 µM
  IC50: 2.23 µM
Second compound 0.316 µM
  IC50: 1.93 µM
Second compound 1 µM
  IC50: 2.16 µM
Second compound 3.16 µM
  IC50: 0.736 µM
Second compound 10 µM
  IC50: 0.998 µM
Second compound 0.0316 µM, first compound 0.0316 µM
  viability, T/C: 96.1%
Second compound 0.0316 µM, first compound 0.1 µM
  viability, T/C: 96.4%
Second compound 0.0316 µM, first compound 0.316 µM
  viability, T/C: 84.4%
Second compound 0.0316 µM, first compound 1 µM
  viability, T/C: 78%
Second compound 0.0316 µM, first compound 3.16 µM
  viability, T/C: 30.2%
Second compound 0.0316 µM, first compound 10 µM
  viability, T/C: 43.2%
Second compound 0.1 µM, first compound 0.0316 µM
  viability, T/C: 106%
Second compound 0.1 µM, first compound 0.1 µM
  viability, T/C: 92.1%
Second compound 0.1 µM, first compound 0.316 µM
  viability, T/C: 98.4%
Second compound 0.1 µM, first compound 1 µM
  viability, T/C: 75.3%
Second compound 0.1 µM, first compound 3.16 µM
  viability, T/C: 39.1%
Second compound 0.1 µM, first compound 10 µM
  viability, T/C: 33.4%
Second compound 0.316 µM, first compound 0.0316 µM
  viability, T/C: 106%
Second compound 0.316 µM, first compound 0.1 µM
  viability, T/C: 86%
Second compound 0.316 µM, first compound 0.316 µM
  viability, T/C: 84%
Second compound 0.316 µM, first compound 1 µM
  viability, T/C: 64.4%
Second compound 0.316 µM, first compound 3.16 µM
  viability, T/C: 35%
Second compound 0.316 µM, first compound 10 µM
  viability, T/C: 37.4%
Second compound 1 µM, first compound 0.0316 µM
  viability, T/C: 75.9%
Second compound 1 µM, first compound 0.1 µM
  viability, T/C: 98.3%
Second compound 1 µM, first compound 0.316 µM
  viability, T/C: 91.6%
Second compound 1 µM, first compound 1 µM
  viability, T/C: 69%
Second compound 1 µM, first compound 3.16 µM
  viability, T/C: 40.4%
Second compound 1 µM, first compound 10 µM
  viability, T/C: 40.8%
Second compound 3.16 µM, first compound 0.0316 µM
  viability, T/C: 87.2%
Second compound 3.16 µM, first compound 0.1 µM
  viability, T/C: 75.5%
Second compound 3.16 µM, first compound 0.316 µM
  viability, T/C: 70.6%
Second compound 3.16 µM, first compound 1 µM
  viability, T/C: 42.8%
Second compound 3.16 µM, first compound 3.16 µM
  viability, T/C: 30.7%
Second compound 3.16 µM, first compound 10 µM
  viability, T/C: 34.6%
Second compound 10 µM, first compound 0.0316 µM
  viability, T/C: 71.3%
Second compound 10 µM, first compound 0.1 µM
  viability, T/C: 57.6%
Second compound 10 µM, first compound 0.316 µM
  viability, T/C: 67%
Second compound 10 µM, first compound 1 µM
  viability, T/C: 46.9%
Second compound 10 µM, first compound 3.16 µM
  viability, T/C: 39.4%
Second compound 10 µM, first compound 10 µM
  viability, T/C: 38%
